The nature of the data set: Visual wetting of cenobamate API on wetting agent solution. Type of data set: physicochemical. To be noted: in the presence of poloxamer 188; time for cenobamate to fall below the surface. The method, then:
Poloxamer 188 was evaluated at different concentrations for sedimentation volume, dispensability and wettability of cenobamate containing dispersion in a neat citrate or phosphate buffer at pH 3 to 7. Approximately one hundred milligrams (100 mg) of cenobamate was dispersed in 10 mL of the poloxamer liquid at the concentration of 0.10, 0.50, 1.00, and 1.50 mg/mL in phosphate buffer pH 4.2 and the dispersions were evaluated for sedimentation volume, re-dispersibility, and wettability. Additionally, separate samples containing poloxamer 188 at the concertation of 0.1 mg/ml were also prepared in citrate buffer at different levels of pH (pH 3.5, 4.2 and 5.2), and evaluated in the same manner.
The volume of the sedimentation layer is an indicator to the amount of spacing between the particles in the sediment layer. Physical observations indicated these dispersions settled rapidly but formed a loosely packed layer which was very easily re-dispersed after inversion and/or shaking (FIGS. 1 and 2).
The following intended effects that were observed are immediate wetting of most of the material after adding cenobamate to the poloxamer solution, rapid and loose initial sedimentation within first 30 minutes to 1 hour as measured by ratio of sediment volume to total volume, no caking and efficient re-dispersion, rapidly dispersing material after shaking the settled sample for 10 seconds.

Each structure is given as a SMILES string.

For the compound `NC(=O)O[C@@H](Cn1ncnn1)c1ccccc1Cl` [cenobamate, carbamic acid (R)-1-(2-chlorophenyl)-2-tetrazol-2-yl-ethyl ester], the Wetting of cenobamate result was “good wetting”.
